According to ChEMBL document CHEMBL3046756, “Synthesis, anti-inflammatory, and structure antioxidant activity relationship of novel 4-quinazoline” (Med Chem Res, 2013):

Legend:
Rattus norvegicus [1] = test: Effect on gamma-glutamyl transferase level in Wistar Rattus norvegicus (rat) serum at 150 mg/kg, po qd after 10 days (reference value: 0.57 +/- 0.04 U/I); assay type: functional
Rattus norvegicus [2] = test: Antipyretic activity in Wistar Rattus norvegicus (rat) assessed as decrease in Brewer's yeast solution-induced hyperthermia at 50 mg/kg, po measured after 2 hr (reference value: 37 +/- 1.7 degC); assay type: functional
Rattus norvegicus [3] = test: Anti-inflammatory activity in Wistar Rattus norvegicus (rat) assessed as inhibition of carrageenan-induced paw edema at 50 mg/kg, po administered 30 min prior to carrageenan challenge measured at 60 min relative to untreated control; assay type: functional
Rattus norvegicus [4] = test: Effect on glutathione peroxidase level in Wistar Rattus norvegicus (rat) liver measured GSH oxidized per min per mg of protein at 100 mg/kg, po after 10 days (reference value: 47.47 +/- 3.86 mmol); assay type: functional
Rattus norvegicus [5] = test: Antipyretic activity in Wistar Rattus norvegicus (rat) assessed as decrease in Brewer's yeast solution-induced hyperthermia at 50 mg/kg, po measured after 1 hr (reference value: 37 +/- 3.55 degC); assay type: functional
Mus musculus [6] = test: Toxicity in albino Mus musculus (mouse) assessed as change in temperature at extremities at 150 to 900 mg/kg, ip measured within 24 hr; assay type: organism-based; design: dose 150-900 mg/kg, route intraperitoneal; settings: in vivo
Rattus norvegicus [7] = test: Anti-inflammatory activity in Wistar Rattus norvegicus (rat) assessed as inhibition of carrageenan-induced paw edema at 50 mg/kg, po administered 30 min prior to carrageenan challenge measured at 30 min post carrageenan challenge relative to untreated control; assay type: functional
Rattus norvegicus [8] = test: Effect on ALP level in Wistar Rattus norvegicus (rat) serum at 150 mg/kg, po qd after 10 days (reference value: 39.5 +/- 3.86 U/I); assay type: functional
Mus musculus [9] = test: Toxicity in albino Mus musculus (mouse) assessed as change in toes color at 150 to 900 mg/kg, ip measured within 24 hr; assay type: organism-based; design: dose 150-900 mg/kg, route intraperitoneal; settings: in vivo
Mus musculus [10] = test: Toxicity in albino Mus musculus (mouse) assessed as rapid respiration at 150 to 900 mg/kg, ip measured within 1 to 2 hr; assay type: organism-based; design: route intraperitoneal; settings: in vivo
Rattus norvegicus [11] = test: Effect on glutathione reductase level in Wistar Rattus norvegicus (rat) liver measured NADPH oxidized per min per mg of protein at 100 mg/kg, po after 10 days (reference value: 4.19 +/ 0.42 nmol); assay type: functional
Rattus norvegicus [12] = test: Effect on SGPT level in Wistar Rattus norvegicus (rat) at 150 mg/kg, po qd after 10 days (reference value: 38.77 +/- 4.25 U/I); assay type: functional
Rattus norvegicus [13] = test: Anti-inflammatory activity in Wistar Rattus norvegicus (rat) assessed as inhibition of carrageenan-induced paw edema at 100 mg/kg, po administered 30 min prior to carrageenan challenge measured at 180 min relative to untreated control; assay type: functional
Rattus norvegicus [14] = test: Anti-inflammatory activity in Wistar Rattus norvegicus (rat) assessed as inhibition of carrageenan-induced paw edema at 50 mg/kg, po administered 30 min prior to carrageenan challenge measured at 180 min relative to untreated control; assay type: functional
Rattus norvegicus [15] = test: Effect on LDH level in Wistar Rattus norvegicus (rat) serum at 150 mg/kg, po qd after 10 days (reference value: 249.89 +/- 13.26 U/I); assay type: functional
Rattus norvegicus [16] = test: Effect on ALP level in Wistar Rattus norvegicus (rat) serum at 50 mg/kg, po qd after 10 days (reference value: 39.5 +/- 3.86 U/I); assay type: functional
Rattus norvegicus [17] = test: Effect on SGOT level in Wistar Rattus norvegicus (rat) at 100 mg/kg, po qd after 10 days (reference value: 145.50 +/- 13.86 U/I); assay type: functional
Rattus norvegicus [18] = test: Effect on TBARS level in Wistar Rattus norvegicus (rat) serum at 150 mg/kg, po qd after 10 days (reference value: 0.82 +/- 0.073 nmol/ml); assay type: functional
Mus musculus [19] = test: Toxicity in albino Mus musculus (mouse) assessed as change in skin color at 150 to 900 mg/kg, ip measured within 24 hr; assay type: organism-based; design: dose 150-900 mg/kg, route intraperitoneal; settings: in vivo
Rattus norvegicus [20] = test: Effect on GST level in Wistar Rattus norvegicus (rat) liver measured CDNB conjugated per min per mg of protein at 150 mg/kg, po after 10 days (reference value: 0.86 +/- 0.08 mmol); assay type: functional
Rattus norvegicus [21] = test: Anti-inflammatory activity in Wistar Rattus norvegicus (rat) assessed as inhibition of carrageenan-induced paw edema at 100 mg/kg, po administered 30 min prior to carrageenan challenge measured at 90 min relative to untreated control; assay type: functional
Rattus norvegicus [22] = test: Antipyretic activity in Wistar Rattus norvegicus (rat) assessed as decrease in Brewer's yeast solution-induced hyperthermia at 150 mg/kg, po measured after 2 hr (reference value: 37 +/- 1.7 degC); assay type: functional
[23] = Toxicity in ip dosed albino Mus musculus (mouse) assessed as mortality measured within 24 hr; assay type: organism-based; settings: in vivo
Rattus norvegicus [24] = test: Anti-inflammatory activity in Wistar Rattus norvegicus (rat) assessed as inhibition of carrageenan-induced paw edema at 150 mg/kg, po administered 30 min prior to carrageenan challenge measured at 90 min relative to untreated control; assay type: functional
Rattus norvegicus [25] = test: Antipyretic activity in Wistar Rattus norvegicus (rat) assessed as decrease in Brewer's yeast solution-induced hyperthermia at 50 mg/kg, po measured after 3 hr (reference value: 36.8 +/- 1.9 degC); assay type: functional
Rattus norvegicus [26] = test: Effect on SGOT level in Wistar Rattus norvegicus (rat) at 150 mg/kg, po qd after 10 days (reference value: 145.50 +/- 13.86 U/I); assay type: functional
Rattus norvegicus [27] = test: Effect on GSH level in Wistar Rattus norvegicus (rat) liver measured per mg of protein at 100 mg/kg, po after 10 days (reference value: 1.84 +/- 0.092 mg); assay type: functional
Rattus norvegicus [28] = test: Anti-inflammatory activity in Wistar Rattus norvegicus (rat) assessed as inhibition of carrageenan-induced paw edema at 100 mg/kg, po administered 30 min prior to carrageenan challenge measured at 30 min post carrageenan challenge relative to untreated control; assay type: functional
Rattus norvegicus [29] = test: Antipyretic activity in Wistar Rattus norvegicus (rat) assessed as decrease in Brewer's yeast solution-induced hyperthermia at 150 mg/kg, po measured after 3 hr (reference value: 36.8 +/- 1.9 degC); assay type: functional
[30] = Antioxidant activity assessed as Fe2+ chelating activity at 1.25 mg/ml after 90 min by spectrophotometric analysis; assay type: functional
Mus musculus [31] = test: Toxicity in albino Mus musculus (mouse) assessed as increase in heart rate at 650 to 1800 mg/kg, ip measured within 1 to 2 hr; assay type: organism-based; design: route intraperitoneal; settings: in vivo
Mus musculus [32] = test: Toxicity in albino Mus musculus (mouse) assessed as change in temperature at extremities at 650 to 1800 mg/kg, ip measured within 24 hr; assay type: organism-based; design: dose 650-1800 mg/kg, route intraperitoneal; settings: in vivo
Mus musculus [33] = test: Toxicity in albino Mus musculus (mouse) assessed as change in skin color at 650 to 1800 mg/kg, ip measured within 24 hr; assay type: organism-based; design: dose 650-1800 mg/kg, route intraperitoneal; settings: in vivo
Mus musculus [34] = test: Toxicity in albino Mus musculus (mouse) assessed as change in toes color at 650 to 1800 mg/kg, ip measured within 24 hr; assay type: organism-based; design: dose 650-1800 mg/kg, route intraperitoneal; settings: in vivo

| Structure (SMILES) | Activity (Rattus norvegicus [1]) | T (Rattus norvegicus [2]) | inhibition in vivo at 50 mg/kg (Rattus norvegicus [3]) | Activity (Rattus norvegicus [4]) | T (Rattus norvegicus [5]) | inhibition in vivo at 50 mg/kg (Rattus norvegicus [7]) | Activity (Rattus norvegicus [8]) | Activity (Rattus norvegicus [11]) | Activity (Rattus norvegicus [12]) | inhibition in vivo at 100 mg/kg (Rattus norvegicus [13]) | inhibition in vivo at 50 mg/kg (Rattus norvegicus [14]) | Activity (Rattus norvegicus [15]) | Activity (Rattus norvegicus [16]) | Activity (Rattus norvegicus [17]) | Activity (Rattus norvegicus [18]) | Activity (Rattus norvegicus [20]) | inhibition in vivo at 100 mg/kg (Rattus norvegicus [21]) | T (Rattus norvegicus [22]) | LD50 at 24 h [23] | inhibition in vivo at 150 mg/kg (Rattus norvegicus [24]) | also measured |
| --- | --- | --- | --- | --- | --- | --- | --- | --- | --- | --- | --- | --- | --- | --- | --- | --- | --- | --- | --- | --- | --- |
| O=c1c2ccccc2nc2n1NC(c1ccc(O)c(O)c1)C2 (centres undefined) | 0.5 U/L | 36.5 °C | 28.1% | 51.38 mmol | 37.6 °C | 1.28% | 37.58 U/L | 4.25 nmol | 33.26 U/L | 48.3% | 47% | 238.21 U/L | 40.77 U/L | 136.34 U/L | 0.8 nmol/mL | 1.34 mmol | 45.9% | 37 °C | 495 mg/kg | 44.2% | Activity (Mus musculus [6]): Toxic; Activity (Mus musculus [9]): Toxic; Activity (Mus musculus [10]): Toxic; Activity (Mus musculus [19]): Toxic; T (Rattus norvegicus [25]): 36.1 °C; Activity (Rattus norvegicus [26]): 134.55 U/L; Activity (Rattus norvegicus [27]): 1.85 mg; inhibition in vivo at 100 mg/kg (Rattus norvegicus [28]): 4.58%; T (Rattus norvegicus [29]): 36.6 °C |
| COC(=O)c1ccccc1NC(=O)/C=C/c1ccc(O)c(O)c1 | 0.49 U/L | 37 °C | 41.6% | 53.74 mmol | 37.7 °C | 24.7% | 31.17 U/L | 5.59 nmol | 40.84 U/L | 70.7% | 65.3% | 232.48 U/L | 38.3 U/L | 133.79 U/L | 0.7 nmol/mL | 1.97 mmol | 49.3% | 36.5 °C | 1140 mg/kg | 62.6% | Activity [30]: 30%; T (Rattus norvegicus [25]): 36.8 °C; Activity (Rattus norvegicus [26]): 129.32 U/L; Activity (Rattus norvegicus [27]): 2.39 mg; Activity (Mus musculus [31]): Toxic; inhibition in vivo at 100 mg/kg (Rattus norvegicus [28]): 26.8%; T (Rattus norvegicus [29]): 36.5 °C; Activity (Mus musculus [32]): Toxic; Activity (Mus musculus [33]): Toxic; Activity (Mus musculus [34]): Toxic |
